These results are taken from patent US8420657B2 (Novartis AG, priority 2008, dated 2013).

The target of assay [1] is T1, GST-JAK2(808-1132) (Homo sapiens, UniProt O60674).
T1 construct: GST-JAK2(808-1132); purchased Invitrogen (Carlsbad, USA) #4288
Kind of assay: JAK2 kinase assay (Caliper mobility shift, LabChip 3000). The class given is biochemical. A digest of the protocol:
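Recombinant GST-JAK2(808-1132) kinase domain with FITC-labelled JAK3tide peptide substrate and ATP; 60 min at 30 °C, EDTA stop. Substrate/product ratio read by microfluidic mobility shift; compounds at 8 final concentrations, 10 to 0.003 μM.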

The subject of assay [2] is JAK1/JAK2-dependent nuclear translocation of STAT1-GFP in HT1080 fibrosarcoma cells. The experiment in a line: STAT1 nuclear translocation assay (Cellomics), IFN-γ stimulated HT1080 STAT1-GFP cells. As to conditions: Homo sapiens, HT-1080, STAT1 translocation pathway. Format: cell-based. A digest of the protocol:
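HT1080 cells stably expressing STAT1-GFP, pre-treated 30 min with compound (10 μM–0.003 μM, 0.1% DMSO), then stimulated 2 h with 100 ng/ml IFN-γ, fixed and Hoechst-stained. Nuclear-cytoplasmic GFP differential imaged over ≥1000 cells/well, normalised to unstimulated and DMSO-stimulated wells for IC50.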

Each structure is given as a SMILES string.

T1 sequence (O60674 808-1132): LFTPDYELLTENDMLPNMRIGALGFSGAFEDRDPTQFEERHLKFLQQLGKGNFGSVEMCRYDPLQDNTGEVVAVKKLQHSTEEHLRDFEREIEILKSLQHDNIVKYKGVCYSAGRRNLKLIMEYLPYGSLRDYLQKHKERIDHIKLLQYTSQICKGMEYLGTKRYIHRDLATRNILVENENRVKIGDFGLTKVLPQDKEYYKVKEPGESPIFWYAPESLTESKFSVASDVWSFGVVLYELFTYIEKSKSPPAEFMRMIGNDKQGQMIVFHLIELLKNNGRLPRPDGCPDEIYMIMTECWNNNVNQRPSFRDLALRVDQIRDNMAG

Broadly, the IC50 is the concentration needed to halve the response being measured. With `Cc1ccc(Nc2ncc3ccn(-c4cc(F)c(CN5CCS(=O)(=O)CC5)c(F)c4)c3n2)cc1C` [Example 290, (3,4-Dimethyl-phenyl)-{7-[4-(1,1-dioxido-thiomorpholin-4-ylmethyl)-3,5-difluoro-phenyl]-7H-pyrrolo[2,3-d]pyrimidin-2-yl}-amine], the IC50 in assay [1] was under 3 nM; in assay [2], 37 nM.

For `Cc1ccc(Nc2ncc3ccn(-c4ccc(C(=O)N5CCS(=O)(=O)CC5)c(F)c4)c3n2)cc1C` [Example 291, {4-[2-(3,4-Dimethyl-phenylamino)-pyrrolo[2,3-d]pyrimidin-7-yl]-2-fluoro-phenyl}-(1,1-dioxido-thiomorpholin-4-yl)-methanone], the figures for the IC50 in assay [1] and in assay [2] were under 3 nM and 54 nM, respectively.

In the case of `CCN1CCN(c2ccc(Nc3ncc4ccn(-c5ccc(CC(=O)N6CCS(=O)(=O)CC6)c(F)c5)c4n3)cc2C)CC1` [Example 292, 1-(1,1-Dioxido-thiomorpholin-4-yl)-2-(4-{2-[4-(4-ethyl-piperazin-1-yl)-3-methyl-phenylamino]-pyrrolo[2,3-d]pyrimidin-7-yl}-2-fluoro-phenyl)-ethanone], the IC50 is under 3 nM in assay [1] and 12.5 nM in assay [2].

Take `CCN1CCN(c2ccc(Nc3ncc4ccn(-c5ccc(C(=O)N6CCOCC6)c(F)c5)c4n3)cc2C)CC1` [Example 293, (4-{2-[4-(4-Ethyl-piperazin-1-yl)-3-methyl-phenylamino]-pyrrolo[2,3-d]pyrimidin-7-yl}-2-fluoro-phenyl)-morpholin-4-yl-methanone]: the results for the IC50 in assay [1] and in assay [2] were under 3 nM and 8 nM, respectively.

As for `Cc1ccc(Nc2ncc3ccn(-c4ccc(C(=O)N5CCOCC5)c(C)c4)c3n2)cc1C` [Example 294, {4-[2-(3,4-Dimethyl-phenylamino)-pyrrolo[2,3-d]pyrimidin-7-yl]-2-methyl-phenyl}-morpholin-4-yl-methanone], the IC50 in assay [1] is under 3 nM; in assay [2], 415 nM.

Regarding `COc1cc(Nc2ncc3ccn(-c4ccc(C(=O)N5CCOCC5)c(F)c4)c3n2)ccc1Cl` [Example 295, {4-[2-(4-Chloro-3-methoxy-phenylamino)-pyrrolo[2,3-d]pyrimidin-7-yl]-2-fluoro-phenyl}-morpholin-4-yl-methanone], the IC50 in assay [1] was 14.5 nM; in assay [2], 795 nM.

Regarding `COc1cc(Nc2ncc3ccn(-c4ccc(C(=O)N5CCOCC5)c(C)c4)c3n2)ccc1F` [Example 296, {4-[2-(4-Fluoro-3-methoxy-phenylamino)-pyrrolo[2,3-d]pyrimidin-7-yl]-2-methyl-phenyl}-morpholin-4-yl-methanone], the IC50 in assay [1] was under 3 nM; in assay [2], 1100 nM.

Turning to `Cc1ccc(Nc2ncc3ccn(-c4ccc(C(=O)NCCN5CCOCC5)c(F)c4)c3n2)cc1C` [Example 297, 4-[2-(3,4-Dimethyl-phenylamino)-pyrrolo[2,3-d]pyrimidin-7-yl]-2-fluoro-N-(2-morpholin-4-yl-ethyl)-benzamide], the IC50 in assay [1] worked out at 30 nM; in assay [2], 2140 nM.

With `Cc1ccc(Nc2ncc3ccn(-c4ccc(C(=O)NCCN5CCN(C)CC5)c(F)c4)c3n2)cc1C` [Example 298, 4-[2-(3,4-Dimethyl-phenylamino)-pyrrolo[2,3-d]pyrimidin-7-yl]-2-fluoro-N-[2-(4-methyl-piperazin-1-yl)-ethyl]-benzamide], the IC50 in assay [1] is 23 nM; in assay [2], 2210 nM.

As for `Cc1ccc(Nc2ncc3ccn(-c4ccc(C(=O)N5CCC(N(C)C)CC5)c(F)c4)c3n2)cc1C` [Example 299, (4-Dimethylamino-piperidin-1-yl)-{4-[2-(3,4-dimethyl-phenylamino)-pyrrolo[2,3-d]pyrimidin-7-yl]-2-fluoro-phenyl}-methanone], the IC50 is 18.5 nM in assay [1] and 145 nM in assay [2].

`Cn1cc(Nc2ncc3ccn(-c4ccc(C(=O)N5CCOCC5)c(F)c4)c3n2)cn1` [Example 302, {2-Fluoro-4-[2-(1-methyl-1H-pyrazol-4-ylamino)-pyrrolo[2,3-d]pyrimidin-7-yl]-phenyl}-morpholin-4-yl-methanone]: the IC50 in assay [1] was 6.1 nM; in assay [2] it was 85 nM.

Take `COc1cc(Nc2ncc3ccn(-c4ccc(C(=O)N5CCOCC5)c(F)c4)c3n2)ccc1C` [Example 303, {2-Fluoro-4-[2-(3-methoxy-4-methyl-phenylamino)-pyrrolo[2,3-d]pyrimidin-7-yl]-phenyl}-morpholin-4-yl-methanone]: the IC50 came out at 4.9 nM in assay [1] and 295 nM in assay [2].

Consider `Cc1ccc(Nc2ncc3ccn(-c4cc(F)c(CN5CCN(C)CC5)c(F)c4)c3n2)cc1C` [Example 304, {7-[3,5-Difluoro-4-(4-methyl-piperazin-1-ylmethyl)-phenyl]-7H-pyrrolo[2,3-d]pyrimidin-2-yl}-(3,4-dimethyl-phenyl)-amine], for which the IC50 in assay [1] was determined as 13.5 nM; in assay [2], 1480 nM.

Consider `Cc1ccc(Nc2ncc3ccn(-c4cc(F)c(CN5CCN(C(C)C)CC5)c(F)c4)c3n2)cc1C` [Example 305, {7-[3,5-Difluoro-4-(4-isopropyl-piperazin-1-ylmethyl)-phenyl]-7H-pyrrolo[2,3-d]pyrimidin-2-yl}-(3,4-dimethyl-phenyl)-amine], for which the figures for the IC50 in assay [1] and in assay [2] were 26 nM and 2680 nM, respectively.

Turning to `Cc1ccc(Nc2ncc3ccn(-c4cc(F)c(CN5CCN(C6CC6)CC5)c(F)c4)c3n2)cc1C` [Example 306, {7-[4-(4-Cyclopropyl-piperazin-1-yl methyl)-3,5-difluoro-phenyl]-7H-pyrrolo[2,3-d]pyrimidin-2-yl}-(3,4-dimethyl-phenyl)-amine], the IC50 turned out to be 39.5 nM in assay [1] and 550 nM in assay [2].

On to `COc1cc(Nc2ncc3ccn(-c4cc(F)c(CN5CCOCC5)c(F)c4)c3n2)ccc1C` [Example 307, [7-(3,5-Difluoro-4-morpholin-4-ylmethyl-phenyl)-7H-pyrrolo[2,3-d]pyrimidin-2-yl]-(3-methoxy-4-methyl-phenyl)-amine], for which the IC50 in assay [1] is 14 nM; in assay [2], 120 nM.

Take `COc1cc(Nc2ncc3ccn(-c4cc(F)c(CN5CCS(=O)(=O)CC5)c(F)c4)c3n2)ccc1C` [Example 308, {7-[4-(1,1-Dioxido-thiomorpholin-4-ylmethyl)-3,5-difluoro-phenyl]-7H-pyrrolo[2,3-d]pyrimidin-2-yl}-(3-methoxy-4-methyl-phenyl)-amine]: the values for the IC50 in assay [1] and in assay [2] were under 3 nM and 15 nM, respectively.

As for `Cc1ccc(Nc2ncc3ccn(-c4cc(F)c(CN5CCOCC5(C)C)c(F)c4)c3n2)cc1C` [Example 309, {7-[4-(3,3-Dimethyl-morpholin-4-ylmethyl)-3,5-difluoro-phenyl]-7H-pyrrolo[2,3-d]pyrimidin-2-yl}-(3,4-dimethyl-phenyl)-amine], the IC50 came out at 780 nM in assay [1] and 4160 nM in assay [2].

Consider `Cc1ccc(Nc2ncc3ccn(-c4cc(F)c(CN5CCN(C)C(=O)C5)c(F)c4)c3n2)cc1C` [Example 310, 4-{4-[2-(3,4-Dimethyl-phenylamino)-pyrrolo[2,3-d]pyrimidin-7-yl]-2,6-difluoro-benzyl}-1-methyl-piperazin-2-one], for which the IC50 in assay [1] was found to be 6.4 nM; in assay [2], 570 nM.

`Cc1ccc(Nc2ncc3ccn(-c4cc(F)c(CN5CCNC(=O)C5)c(F)c4)c3n2)cc1C` [Example 312, 4-{4-[2-(3,4-Dimethyl-phenylamino)-pyrrolo[2,3-d]pyrimidin-7-yl]-2,6-difluoro-benzyl}-piperazin-2-one]: the IC50 was 13 nM in assay [1] and 565 nM in assay [2].

Turning to `Cc1ccc(Nc2ncc3ccn(-c4ccc(S(C)(=O)=O)cc4)c3n2)cc1CN1CCNCC1` [Example 333, [7-(4-Methanesulfonyl-phenyl)-7H-pyrrolo[2,3-d]pyrimidin-2-yl]-(4-methyl-3-piperazin-1-ylmethyl-phenyl)-amine], the figures for the IC50 in assay [1] and in assay [2] were 3.9 nM and 530 nM, respectively.

Regarding `Cc1ccc(Nc2ncc3ccn(-c4cc(F)c(CN5CCOCC5)c(F)c4)c3n2)cc1CN1CCNC(=O)C1` [Example 334, 4-{5-[7-(3,5-Difluoro-4-morpholin-4-ylmethyl-phenyl)-7H-pyrrolo[2,3-d]pyrimidin-2-ylamino]-2-methyl-benzyl}-piperazin-2-one], the IC50 in assay [1] was at most 3 nM; in assay [2], 260 nM.

As for `CN1CCN(Cc2ccc(Nc3ncc4ccn(-c5ccc(S(C)(=O)=O)cc5)c4n3)cc2)CC1=O` [Example 335, 4-{4-[7-(4-Methanesulfonyl-phenyl)-7H-pyrrolo[2,3-d]pyrimidin-2-ylamino]-benzyl}-1-methyl-piperazin-2-one], the 50% inhibitory concentration (IC50) was determined as 9.3 nM in assay [1] and 360 nM in assay [2].

In the case of `Cc1ccc(Nc2ncc3ccn(-c4ccc(C(=O)N5CCOCC5)c(F)c4)c3n2)cc1CN1CCNCC1` [Example 336, {2-Fluoro-4-[2-(4-methyl-3-piperazin-1-ylmethyl-phenylamino)-pyrrolo[2,3-d]pyrimidin-7-yl]-phenyl}-morpholin-4-yl-methanone], the IC50 stood at 3.6 nM in assay [1] and 205 nM in assay [2].

On to `CN1CCN(Cc2ccc(Nc3ncc4ccn(-c5ccc(C(=O)N6CCOCC6)c(F)c5)c4n3)cc2)CC1=O` [Example 337, 4-(4-{7-[3-Fluoro-4-(morpholine-4-carbonyl)-phenyl]-7H-pyrrolo[2,3-d]pyrimidin-2-ylamino}-benzyl)-1-methyl-piperazin-2-one], for which the results for the IC50 in assay [1] and in assay [2] were 6.1 nM and 185 nM, respectively.

`CC(=O)N1CCN(Cc2ccc(Nc3ncc4ccn(-c5ccc(C(=O)N6CCOCC6)cc5)c4n3)cc2)CC1` [Example 338, 1-[4-(4-{7-[4-(Morpholine-4-carbonyl)-phenyl]-7H-pyrrolo[2,3-d]pyrimidin-2-ylamino}-benzyl)-piperazin-1-yl]-ethanone]: the figures for the IC50 in assay [1] and in assay [2] were 3.9 nM and 135 nM, respectively.
